Results: patent US20180251847A1, “METHOD OF PREDICTING THE TUMOR RESPONSE TO DNA METHYLATION INHIBITORS AND ALTERNATIVE THERAPEUTIC REGIMEN FOR OVERCOMING RESISTANCE” (PALACKY UNIVERSITY, OLOMOUC, priority 2014, published 2018)

Columns and labels:
[1] = test system: MCF-7_RDAC; experiment: MTT based cell survival assay, DAC resistant MCF-7; parameters: species or system human
Experimental: (§1) For cross validation of data obtained from comparative studies of HCT116 parental and resistant cells, we further developed DAC resistant MCF-7 and HL-60 cell lines. […] However, DAC resistant HL-60 cells were obtained as a gift from the author (Qin T. et al., Blood 2009; 113, 659-67) and was further selected in our laboratory by treatment with 5 μM DAC.
(§2) MTT based cell survival assay was performed in either case, whether to determine the cross-resistance of the DAC resistant cell lines towards inhibitors of DNA methyltransferases, histone acetyltransferases, histone methyltransferases, histone deacetylases, and histone demethylases, or to determine their sensitivity towards selective BET bromodomain inhibitors. […]
(§3) To determine the IC50 of the epigenetic drugs (Tocris Bioscience, Bristol, United Kingdom), four independent experiments were performed using triplicate wells of 96 well plates. […] The wells with medium alone were included alongside as blank for absorbance readings. […]
(§4) Cross resistance was determined as the fold increase, whereas, the sensitivity was determined as the fold decrease in the IC50 of the drugs for the resistant cell lines compared to their genetically identical drug sensitive counterpart.

[2] = test system: MCF-7; experiment: MTT based cell survival assay, parental MCF-7; conditions: Homo sapiens, MCF7, read-out: Mean IC50
Experimental: (§5) To study the mechanism of resistance towards DNA methylation inhibitor, 2′-deoxy-5-azacytidine, we used the human colorectal cancer cell line (HCT116), human promyelocytic leukemia cells (HL-60), and human breast adenocarcinoma cell line (MCF-7) obtained from American Type Culture Collection (Manassas, Va.). The cell lines were cultured in complete growth media (Sigma-Aldrich, St. Louis, Mo.), supplemented with fetal bovine serum (FBS, PAN-Biotech GmbH, Aidenbach, Germany), 100 U/mL penicillin (Biotika, Slovenská L'upča, Slovak Republic) and 50 μg/mL streptomycin (Sigma-Aldrich), and the cultures were maintained at 37° C. and 5% CO2, in a humidified incubator. […]
as §3, §4

[3] = test system: R1.2 (HCT116-RDAC); experiment: MTT based cell survival assay, DAC resistant HCT116 clone R1.2; parameters: species or system human
Experimental: The DAC resistant HCT116 cell lines were developed using two methods.
The method is primarily based on reduction of yellow colored tetrazolium salt, 3-(4,5-dimethylthiazol-2-yl)-2,5-diphenyltetrazolium bromide (MTT) to insoluble purple colored formazan crystals by NAD(P)H-dependent oxidoreductase enzymes in mitochondria of the viable cell.
Cells in 80 μL of medium were plated in each of the experimental and the control wells, followed by addition of 20 μL medium with five-fold drug concentration to experimental wells. The wells with medium alone were included alongside as blank for absorbance readings. After 72 h of drug treatment, 10 μL MTT (Sigma-Aldrich) prepared in 1×PBS (5 mg/mL) was added to all wells including blank and control, and incubated until the purple formazan crystals were visible after which 100 μL of detergent (10% SDS, pH: 5.5) was added and the plates were incubated overnight to solubilize the formazan and the cellular material.
as §4

[4] = test system: DAC resistant cell lines; experiment: MTT based cell survival assay, DAC resistant cell lines as a group; conditions: Homo sapiens, all of the resistant cell lines, read-out: resistance to DAC (IC50)
Experimental: The DAC resistant HCT116 cell lines were developed using two methods. […] After long term exposure of the cells to cytotoxic dose of the drug, the bulk population was determined to be resistant.
as §1
Resistance to DAC was confirmed by the MTT-based cell survival assay and resistance index was calculated as the fold increase in the IC50 of the resistant cell lines compared with the untreated control. All of the resistant cell lines were >100 μM resistant to DAC. […]
as §3, §4

[5] = test system: HL-60; experiment: MTT based cell survival assay, parental HL-60; conditions: Homo sapiens, HL-60, read-out: Mean IC50
Experimental: as §5, §3, §4

[6] = test system: HL-60_RDAC; experiment: MTT based cell survival assay, DAC resistant HL-60; parameters: species or system human
Experimental: as §1, §2, §3, §4

`Nc1ncn([C@H]2C[C@H](O)[C@@H](CO)O2)c(=O)n1` [DAC, 2′-deoxy-5-azacytidine] was tested, and the IC50 ([1]; Homo sapiens, MCF7, read-out: Mean IC50) was over 100 µM, the “fold change (resistance)” value ([1]; IC50 MCF-7_RDAC / IC50 MCF-7) was over 421 fold and the IC50 [2] was 0.238 µM. The IC50 ([3]; Homo sapiens, HCT-116, 72 h, read-out: Mean IC50) was over 100 µM, the “fold change (resistance index)” value ([3]; IC50 R1.2 / IC50 HCT116) was “(>357) fold” and the IC50 [4] was over 100 µM. For the same molecule, the IC50 [5] was 0.078 µM, the IC50 ([6]; Homo sapiens, HL-60, read-out: Mean IC50) was over 100 µM and the “fold change (resistance)” value ([6]; IC50 HL-60_RDAC / IC50 HL-60) was over 1289 fold.
